The source of these data is patent US9241928B2, “Antimicrobial compounds” (The General Hospital Corporation, priority 2009, dated 2016).

Values after ≈ are worked out from the molar mass of the structure shown.

A word on the MIC: it is the least concentration at which growth counts as inhibited.

The subject of one assay is E. faecalis MMH594. Briefly: MIC assay, E. faecalis in vitro. The class given is cell-based. Conditions: Enterococcus faecalis; E. faecalis MMH594 in 20% BHI, 80% M9, 37° C., 15 hours, scored by eye. The procedure: A culture of E. faecalis MMH594 was grown overnight in BHI broth to stationary phase at 37° C. with aeration. The culture was diluted to an approximate density of […] in worm infection media (20% BHI, 80% M9 buffer). 12.5 μl of the bacterial culture dilution was inoculated into 384-well plates containing 12.5 μl of 2-fold serial dilutions of a test compound. […] Plates were incubated at 37° C. for 15 hours and scored by eye for bacterial growth.

In assay [1] the test system is P. aeruginosa strain PA14 infection in Caenorhabditis elegans. The assay is described as follows: Liquid assay for PA14 infection of C. elegans. The class given is in vivo. As to the method: A liquid assay for PA14 infection of C. elegans in a 96-well plate format was developed. In brief, temperature-sterile glp-4 and glp-4;sek-1 worms were synchronized according to standard protocols. L1 larvae were plated, incubated for 16 hours at 15° C., and then for an additional 48 hours at […], which brought them to a young adult stage. In parallel, PA14 bacteria were grown overnight prior to being plated on SK medium plates (see Tan et al., Proc. Natl. Acad. Sci., 96(2): 715-720). PA14-inoculated plates were incubated for 24 hours at 37° C. prior to an 18 hours incubation at 25° C. Subsequently, bacteria were removed from plates and resuspended in S Basal media (see Stiernagle, (2006) “Maintenance of C. elegans” WormBook, ed. The C. elegans. Research Community http://www.wormbook.org/). 96-well polystyrene plates were prepared with a medium containing either 20% SK and 80% S Basal or 50% SK and 50% S Basal, with a bacterial density of OD600=0.03. […] Dispensation of 25 young adult glp-4 or glp-4; sek-1 worms to each well using a COPAS BioSort robot brought the final total volume to […]. After worms were added, each plate was sealed with a gas permeable membrane and incubated for 48 hours at 25° C. […] Worms were stained for 18 hours at 20° C. and each well was photographed using bright-field and red fluorescence channels with a Molecular Devices Discovery-1 Microscope.

In another assay the test system is PA14. Briefly: Growth of PA14 in presence of compound (data not shown). The class given is cell-based, Pseudomonas aeruginosa. Conditions: 3.125 μg/mL.

The molecule `NNc1ccc2c(Cl)cc(Cl)c(O)c2n1` [Compound 11] yielded an MIC in the assay on E. faecalis MMH594 of 6.25 µg/mL (≈ 25.6 µM). Moreover, the “mortality of PA14-infected worms” value in assay [1] (3.125 μg/mL, glp-4 and glp-4;sek-1 worms, 48 hours) is listed as at most 30%. Further, the “effect of increasing the dosage on efficacy” value in assay [1] (6.25 and 20 μg/mL versus 3.125 μg/mL) is reported as “did not increase its efficacy”. Besides, the “effect on PA14 (growth)” value with PA14 is recorded as “unaffected”.
